Test results: PMC12491715 (Acta Pharmaceutica Sinica. B, 2025)

What was measured:
[1] = tested on: α2 adrenoreceptors; parameters: method as in PMID 1975199, PMID 16389294; conditions: α2 adrenergic antagonist; cited from earlier work
[2] = biological target: hAChE (Homo sapiens, UniProt P22303); experiment: ChE IC50 determination, method of Ellman, hAChE; type: biochemical; conditions: for remaining activity at 100 µM: residual activity at 100 μmol/L, after 5 min preincubation, read-out: hAChE RA±SD (residual activity)
Method: (§1) The inhibitory potencies of the compounds against the ChEs were determined using the method of Ellman following the procedure described previously. Briefly, compound stock solutions in DMSO were incubated with Ellman’s reagent and ChEs (final concentrations: 370 μmol/L Ellman’s reagent, approximately 1 nmol/L or 50 pmol/L hBChE or hAChE, respectively) in 0.1 mol/L sodium phosphate pH 8.0 for 5 min at 20 °C. For time-dependency measurements, the pre-incubation time was varied (1, 5, 15, 30 or 60 min). The reactions were started by the addition of the substrate (final concentration, 500 μmol/L butyrylthiocholine iodide or acetylthiocholine iodide for hBChE and hAChE, respectively). The final content of DMSO was always 1%. The increase in absorbance at 412 nm was monitored for 2 min using a 96-well microplate reader (Synergy HT, BioTek Instruments, VT, USA). The initial velocities in the presence (vi) and absence (v0) of the test compounds were calculated. The inhibitory potencies were expressed as the residual activities, according to Eq. (1):(1) RA = vi / v0
(§2) For IC50 determinations, at least seven different concentrations for each compound were used. The IC50 values were obtained by plotting the residual ChE activities against the applied inhibitor concentrations, with the experimental data fitted to a four-parameter logistic function (GraphPad Prism 9.4). Tacrine and donepezil were used as positive controls.

[3] = biological target: T1, hBChE (Homo sapiens, UniProt P06276); experiment: ChE IC50 determination, method of Ellman, hBChE; type: biochemical
Method: as §1, §2

[4] = parameters: method as in PMID 1975199, PMID 16389294; conditions: in humans; cited from earlier work
[5] = biological target: T1, hBChE; experiment: hBChE binding kinetics: carbamoylation and decarbamoylation, initial velocity measurements; type: biochemical
Method: The progress curves for the time courses of product formation for the hydrolysis of butyrylthiocholine iodide were measured on an Agilent Cary 3500 UV–VIS spectrophotometer with Compact Peltier (thermostated at 25 °C) at 412 nm using a 0.6 mL cuvette (optical path–0.5 cm). 30 mmol/L Tris buffer pH 7.0 with 1 mg/mL BSA and 0.02% NaN3 was used and all dilutions were done in glass vessels (note: dilute hBChE solutions rapidly lose activity, presumably due to adsorption to plastic, preventing meaningful decarbamoylation assays. In our hands, under the above conditions only, the diluted and stock solutions of hBChE were stable for at least a month at room temperature.). Total volume in the cuvette was always 500 μL, and enzyme solutions that gave upon dilution v0 = (dA/dt) ≈ 0.5 (for carbamoylation) and ≈ 1 for (for decarbamoylation) were used. For carbamoylation experiments, 0.5–1 μL of enzyme stock, 5 μL of compound solution, and 484 μL of buffer were preincubated for the specified time, then 10 μL of the mixture of 25 mmol/L Ellman’s reagent (DTNB) and 20 mmol/L butyrylthiocholine (large excess to prevent substrate depletion) were added, quickly mixed, and measurement started. […] The data analysis followed the literature[63]^,[98].

[6] = tested on: ICR mice icv-injected with Aβ1–42; experiment: Morris water maze, mice model with icv-injection of Aβ1–42; type: in vivo; conditions: 10 mg/kg, ip; compared with compound 8
Method: Mice model with icv-injection of Aβ1–42 The experiments were performed using ICR male mice (8–10 weeks old, weight 18–20 g), which were purchased from Shanghai Bikai Animal Breeding Factory (Shanghai, China). Animals were housed in cages (6 mice per cage) at a constant temperature of 25±2 °C, humidity of 55%±10% and a light/dark (12:12) cycle. The mice had unlimited access to food and water prior to the experiment. Specified conditions for the maintenance of mice were ensured throughout the experiments, including tree bedding (Yizheng Anlimao Biotechnology Co., Ltd., China) and lab feed (Zimao, China). For behavioural tests, mice were selected randomly, each group consisted of 6 mice. The experiments were performed between 9 am and 3 pm.
According to the literature procedure, recombinant human hexafluoroisopropanol-pretreated Aβ1–42 from Merck Millipore (Darmstadt, Germany) was dissolved in 1% DMSO, diluted with saline to the final concentration of 2 mg/mL, and incubated for 72 h to form oligomers. […]
Behavioural assays The Morris water maze was placed in a lighted room at 25 °C, and it was divided into four equal quadrants. […] The time spent searching for the missing platform was recorded by Xeye Aba image processing system (Beijing Zhongshi Dichuang Technology Development Co., Ltd.) and analysed by GraphPad Prism 5.

T1 sequence (P06276 29-602): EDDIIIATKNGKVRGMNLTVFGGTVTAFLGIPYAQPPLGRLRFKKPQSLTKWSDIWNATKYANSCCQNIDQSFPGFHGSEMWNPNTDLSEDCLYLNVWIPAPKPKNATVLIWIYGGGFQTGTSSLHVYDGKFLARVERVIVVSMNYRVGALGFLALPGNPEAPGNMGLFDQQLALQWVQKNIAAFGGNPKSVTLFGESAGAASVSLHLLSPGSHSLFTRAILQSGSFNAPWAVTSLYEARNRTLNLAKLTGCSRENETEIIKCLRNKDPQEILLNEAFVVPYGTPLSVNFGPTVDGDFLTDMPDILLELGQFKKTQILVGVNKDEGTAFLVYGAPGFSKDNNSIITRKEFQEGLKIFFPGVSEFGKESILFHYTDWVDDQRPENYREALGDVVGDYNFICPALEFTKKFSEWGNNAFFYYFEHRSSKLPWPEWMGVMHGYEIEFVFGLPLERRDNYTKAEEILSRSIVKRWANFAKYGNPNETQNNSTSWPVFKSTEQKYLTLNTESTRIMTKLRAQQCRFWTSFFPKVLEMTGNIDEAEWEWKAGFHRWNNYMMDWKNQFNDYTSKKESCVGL
Chain of hAChE (P22303 32-614): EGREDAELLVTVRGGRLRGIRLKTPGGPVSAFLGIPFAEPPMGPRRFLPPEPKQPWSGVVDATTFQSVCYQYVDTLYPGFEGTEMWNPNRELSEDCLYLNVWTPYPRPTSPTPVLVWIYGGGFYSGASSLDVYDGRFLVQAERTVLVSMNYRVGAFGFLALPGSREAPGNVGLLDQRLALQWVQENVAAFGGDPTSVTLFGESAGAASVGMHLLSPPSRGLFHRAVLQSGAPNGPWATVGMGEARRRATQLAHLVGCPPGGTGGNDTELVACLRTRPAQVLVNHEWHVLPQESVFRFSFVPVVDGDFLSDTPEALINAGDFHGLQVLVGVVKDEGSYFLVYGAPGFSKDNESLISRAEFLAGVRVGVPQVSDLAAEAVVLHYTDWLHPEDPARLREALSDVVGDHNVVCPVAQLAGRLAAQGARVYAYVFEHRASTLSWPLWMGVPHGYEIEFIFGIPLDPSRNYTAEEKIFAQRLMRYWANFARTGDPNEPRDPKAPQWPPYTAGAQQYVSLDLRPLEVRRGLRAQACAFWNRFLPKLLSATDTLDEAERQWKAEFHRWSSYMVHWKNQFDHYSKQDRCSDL

Which “potency compared to idazoxan 2” value [1] does the source give for `CCC1(c2cnc[nH]2)Cc2ccccc2C1` [Compound 5, 4-(2-ethylindan-2-yl)-1H-imidazole, reference compound] here?
The value was “approx. 100 fold”.

And the remaining activity at 100 µM [2]?
Its remaining activity at 100 µM is 82%.

And the “ChE inhibition of the leaving groups” value ([3]; ChEs (hBChE and hAChE))?
Its value is “ineffective”.

What about the remaining activity at 100 µM ([3]; residual activity at 100 μmol/L, after 5 min preincubation, read-out: hBChE RA±SD (residual activity)) of the same compound?
The remaining activity at 100 µM was 82%.

What about the half-life [4] of the same compound?
Its half-life is 1.7 to 2 h.

Which “hAChE time-dependency observed: Yes/No” value ([2]; pre-incubation time varied) does the source give for `CCN(C)C(=O)n1cnc(C2(CC)Cc3ccccc3C2)c1` [Compound 7, N-Ethyl-4-(2-ethylindan-2-yl)-N-methyl-1H-imidazole-1-carboxamide] here?
Its value is “Yes”.

What about the remaining activity at 100 µM [2] of the same compound?
The remaining activity at 100 µM was 52 ± 3%.

What about the IC50 ([3]; after 5 min preincubation, read-out: hBChE IC50±SD) of the same compound?
Its IC50 is 9.9 ± 0.9 nM.

And the “hBChE time-dependency observed: Yes/No” value ([3]; pre-incubation time varied)?
Its value is “Yes”.

And the Ki [5]?
The Ki was 73 ± 6 nM.

And the “kcarb, carbamoylation” value ([5]; 25 °C)?
The value was 7.2±4.5 min^–1.

What about the “kdecarb, decarbamoylation” value ([5]; 25 °C) of the same compound?
The value was 0.92±0.14 ×10^–2 h^–1.

What about the “t1/2, decarbamoylation” value ([5]; 25 °C) of the same compound?
Its value is 75 ± 11 h.

And the “ΔG25°C‡, carbamoylation” value ([5]; 25 °C)?
The value was 18.7 ± 0.4 kcal/mol.

And the “effectiveness in MWM test” value [6]?
The value was “less effective”.
